In assay [1] the target is T1, AChE (EC 3.1.1.7, from electric eel) (Electrophorus electricus, UniProt O42275).
T1 construct: purchased Aladdin (Shanghai, China)
Kind of assay: In vitro AChE inhibitory activity assay (modified Ellman's method). It counts as biochemical. The conditions noted are these: tested at 100 μM, triplicate. As for the experimental part: (§1) The inhibitory activities against AChE (EC 3.1.1.7) and BChE (EC 3.1.1.8) of the fungal samples and test compounds were analyzed following Ellman’s method ([Ellman et al., 1961]) with modifications. AChE (EC 3.1.1.7, from electric eel), BChE (EC 3.1.1.8, from equine serum), acetylthiocholine iodide (ATCI), butyrylthiocholine iodide (BTCI), and 5,5′-dithiobis (2-nitrobenzoic acid) (DTNB) were purchased from Aladdin (Shanghai, China). AChE and BChE solutions were prepared with water (0.2 units/ml). ATCI and BTCI solutions (10 mM) were prepared with deionized water before using. A DTNB solution (10 mM) was prepared in a 0.1 M, pH 8.0 solution of potassium dihydrogen phosphate (1.36 g, 10 mmol) in 100 ml of water (PBS). The fungal samples for screening were diluted to 1.0 mg/ml with methanol. The test compounds were dissolved in methanol (10 mM) as stock solutions. Subsequently, at least five different concentrations of each compound (double ratio dilution with methanol) were used to determine the half maximal inhibitory concentration (IC50). The tests were performed using 96-well plates. First, 160 μl of PBS, 2 μl of the test sample solution, 20 μl of AChE or BChE, and 10 μl of DTNB were added and mixed in each well, and then preincubated at 37°C for 10 min. After the addition of 10 μl of ATCI or BTCI, the reaction was initiated and incubated at 37°C for another 10 min. Then, the absorbance was measured at 412 nm. The wells with 2 μl of methanol replacing the test sample solution was used to determine 100% of the enzyme activity, and 20 μl of water replacing the enzyme solution was used to determine the blank value. All of the tests for each sample were performed in triplicate. The inhibition curve was fitted by plotting the inhibition rate vs. the logarithm of the test compound concentration. The IC50 values were calculated using Microsoft Excel software, and the data were expressed as the mean ± SD. The inhibition rate was calculated using the formula: IR% = [(Ac-As)]/[(Ac-Ab)] × 100%, where Ab denotes the absorbance of the blank control without the enzyme solution, Ac represents the absorbance of the control without the sample solution, and As denotes the absorbance of the sample.

For assay [2], the target named is T2, BChE (EC 3.1.1.8, from equine serum) (Equus caballus, UniProt P81908).
T2 construct: BChE (EC 3.1.1.8, from equine serum); purchased Aladdin (Shanghai, China); host or cells: equine serum
Kind of assay: biochemical. The conditions noted are these: for BChE IR, %: tested at 100 μM, triplicate. In kind it is biochemical. As for the experimental part:
The fresh spore suspensions of SGP-1 and the seven other strains were inoculated into an Erlenmeyer flask (250 ml) containing 100 ml of liquid medium (glucose 2%, maltose 1%, mannitol 2%, glutamic acid 1%, peptone 0.5%, and yeast extract 0.3% in distilled water) and fermented at 28°C for 12 days on a rotary shaker at 200 rpm. To each fermentation broth was added 200 ml of ethyl acetate (EtOAc), and extraction was performed with the assistance of ultrasonication (40 kHz) for 30 min. The EtOAc solutions were removed in vacuo at 37°C to produce the EtOAc extracts. Each fungal EtOAc extract was dissolved in methanol at a concentration of 100.0 mg/ml, and was further diluted to a […] solution used for an in vitro BChE inhibitory activity assay. A sample of strain SGP-1 was analyzed using an HPLC-photo-diode array detector (PDAD)-UV with an analytical Kromasil C18 column (5 μm, 100 Å, 4.6 mm × 250 mm; Akzo Nobel) on an Agilent 1100 HPLC system equipped with a PDAD (G1316A). The extraction solution in methanol (100.0 mg/ml) was filtered with a 0.45-μm membrane, and then injected (20 μl) into the column, followed by elution with an MeOH-H2O linear gradient (20%→100% MeOH in 20 min followed by 5 min with isocratic 100% MeOH) mobile phase (flow rate 1 ml/min). During the separation procedure, the constituents of the emerging chromatographic peaks were collected in Eppendorf tubes with 2 s of delay. Each eluate was fixed to a volume of 200 μl, which was then used for the BChE inhibitory activity assay. The acquired PDAD data, including the UV spectra of peaks, were processed using Agilent OpenLAB software.
as §1

The target in assay [3] is T2, BChE (EC 3.1.1.8, from equine serum). Kind of assay: Kinetic study of BChE inhibition (Lineweaver-Burk and secondary plots). In kind it is biochemical. The procedure:
Kinetic studies were performed using the same protocol as the BChE inhibitory activity assay, and the substrate BTCI was used in a series of concentrations, 0.2, 0.4, 0.5, 0.6, and 0.7 mM. The test compound concentrations were set according to the inhibition IC50 of each compound. The enzymatic reaction was extended to 15 min before the detection of the absorbance. Lineweaver–Burk plots were generated to obtain the kinetic parameters, Michaelis constant (Km) and maximum velocity (Vmax), according to which inhibition modes were determined.

In assay [4] the target is α-glucosidase. The conditions noted are these: earlier study quoted in discussion; no reference given; cited from earlier work.
Where [5] appears, read: sample concentration that led to 50% enzyme activity loss, mean ± SD, read-out: BChE IC50.
The mark [6] stands for this setting: BChE, competitive inhibition, secondary plot of K vs [I], read-out: Ki (inhibition constant).

The values that follow come from article PMC9811682 (Frontiers in Chemistry, 2022).

The structures appear in SMILES notation. Where two headings read alike, the source gives them in different places.

T1 sequence (O42275 24-633): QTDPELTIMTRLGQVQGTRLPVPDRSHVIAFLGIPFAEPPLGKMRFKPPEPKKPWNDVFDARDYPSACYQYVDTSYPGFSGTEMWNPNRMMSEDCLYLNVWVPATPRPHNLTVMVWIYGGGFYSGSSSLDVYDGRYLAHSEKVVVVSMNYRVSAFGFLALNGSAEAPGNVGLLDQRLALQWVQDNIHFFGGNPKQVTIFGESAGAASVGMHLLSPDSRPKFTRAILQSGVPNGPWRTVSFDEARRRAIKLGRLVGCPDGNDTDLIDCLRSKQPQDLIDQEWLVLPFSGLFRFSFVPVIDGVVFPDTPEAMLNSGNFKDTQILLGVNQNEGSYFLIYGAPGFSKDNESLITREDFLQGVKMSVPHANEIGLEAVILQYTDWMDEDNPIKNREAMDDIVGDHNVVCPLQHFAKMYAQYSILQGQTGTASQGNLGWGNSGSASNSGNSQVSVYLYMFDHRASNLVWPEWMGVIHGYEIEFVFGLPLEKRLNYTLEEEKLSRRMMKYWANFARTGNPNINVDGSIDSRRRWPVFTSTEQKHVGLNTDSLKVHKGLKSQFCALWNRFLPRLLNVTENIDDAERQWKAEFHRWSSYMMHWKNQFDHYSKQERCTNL
T2 sequence (P81908 whole entry): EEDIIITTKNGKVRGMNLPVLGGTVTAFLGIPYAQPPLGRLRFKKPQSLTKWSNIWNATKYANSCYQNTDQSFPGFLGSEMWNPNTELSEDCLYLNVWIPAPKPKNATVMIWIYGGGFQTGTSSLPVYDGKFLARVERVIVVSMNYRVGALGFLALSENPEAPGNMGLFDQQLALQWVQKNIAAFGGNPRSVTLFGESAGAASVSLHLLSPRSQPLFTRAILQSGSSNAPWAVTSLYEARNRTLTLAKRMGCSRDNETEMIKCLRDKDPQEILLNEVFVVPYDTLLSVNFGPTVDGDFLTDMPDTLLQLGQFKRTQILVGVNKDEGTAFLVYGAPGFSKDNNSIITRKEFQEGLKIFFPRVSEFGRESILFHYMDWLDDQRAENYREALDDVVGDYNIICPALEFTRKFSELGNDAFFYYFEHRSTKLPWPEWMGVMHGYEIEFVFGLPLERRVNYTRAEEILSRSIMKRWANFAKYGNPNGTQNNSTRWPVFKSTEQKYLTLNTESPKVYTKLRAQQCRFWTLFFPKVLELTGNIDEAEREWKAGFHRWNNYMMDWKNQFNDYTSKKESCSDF

For orientation: IC50 means the concentration that gives 50% inhibition. For `CC(C)=CCc1cc(/C=C2\OC(=O)C(c3ccc(O)c(CC=C(C)C)c3)=C2O)ccc1O` [Aspulvinone H, aspulvinone H, reference compound], the “AChE IR, %” value in assay [1] worked out at 9.6 ± 3.4%. In addition, in assay [2] (setting [5]), the IC50 is above 100 µM. The “BChE IR, %” value in assay [2] is given as 6.5 ± 2.6%.
On the same counts, the results for `COC(=O)C1(O)OC(=O)C(Cc2ccc(O)c(CCC(C)(C)OC)c2)=C1c1ccc(O)cc1` (centres unmarked) [Compound 1, methyl-2-hydroxy-4-(4-hydroxy-3-(3-methoxy-3-methylbutyl)benzyl)-3-(4-hydroxyphenyl)-5-oxo-2,5-dihydrofuran-2-carboxylate] are 11.2 ± 3.6%, above 100 µM and 15.6 ± 2.3%.
In the case of `COC(=O)C1(O)OC(=O)C(Cc2ccc(O)c(CCC(C)(C)O)c2)=C1c1ccc(O)cc1` (centres unmarked) [Compound 2, methyl-2-hydroxy-4-(4-hydroxy-3-(3-hydroxy-3-methylbutyl)benzyl)-3-(4-hydroxyphenyl)-5-oxo-2,5-dihydrofuran-2-carboxylate], the “AChE IR, %” value in assay [1] was 7.7 ± 1.0%. For the same compound, in assay [2] (setting [5]), the half-inhibitory concentration (IC50) was above 100 µM. The “BChE IR, %” value in assay [2] came to 3.2 ± 3.6%.
The corresponding values for `COC(=O)[C@@]1(O)OC(=O)C(Cc2ccc3c(c2)CCC(C)(C)O3)=C1c1ccc(O)cc1` [Compound 3, flavipesolide B] are 19.6 ± 4.2%, above 100 µM and 22.5 ± 3.1%.
Usually Ki stands for the equilibrium dissociation constant of an inhibitor or competing ligand from its target. Regarding `COC(=O)[C@@]1(O)OC(=O)C(Cc2ccc(O)c(CC=C(C)C)c2)=C1c1ccc(O)cc1` [Compound 4, butyrolactone VIII], the inhibition constant (Ki) in assay [3] (setting [6]) is 23.6 µM. For the same compound, in assay [1], the “AChE IR, %” value was found to be 11.9 ± 1.0%. Besides, the half-maximal inhibitory concentration (IC50) in assay [2] (setting [5]) was determined as 45.8 ± 6.9 µM. The “BChE IR, %” value in assay [2] stood at 67.3 ± 2.8%.
The corresponding values for `COC(=O)C1(Cc2ccc(O)c(CC=C(C)C)c2)OC(=O)C(O)=C1c1ccccc1` (centres unmarked) [Compound 5, versicolactone B] are 38.2 µM, 10.4 ± 1.9%, 44.3 ± 3.7 µM and 64.4 ± 3.2%.
In the case of `COC(=O)[C@@]1(Cc2ccc(O)c(CC=C(C)C)c2)OC(=O)C(O)=C1c1ccc(O)cc1` [Compound 6, butyrolactone I], the inhibition constant Ki in assay [3] amounted to 19.3 µM. In assay [1], the “AChE IR, %” value was −6.7 ± 3.6%. Also, in assay [4], the IC50 was 1.52 µM. In addition, in assay [2], it took 35.5 ± 1.3 µM to reach half-maximal inhibition (IC50) and the “BChE IR, %” value was determined as 68.0 ± 4.1%.
Turning to `CCOC(=O)C1(Cc2ccc(O)c(CC=C(C)C)c2)OC(=O)C(O)=C1c1ccc(O)cc1` (centres unmarked) [Compound 7, butyrolactone VII], the Ki in assay [3] (setting [6]) amounted to 12.3 µM. Besides, the “AChE IR, %” value in assay [1] came to 11.7 ± 1.4%. For the same compound, the IC50 in assay [2] (setting [5]) was 18.4 ± 2.5 µM. Besides, in assay [2], the “BChE IR, %” value is reported as 76.0 ± 3.5%.
On the same counts, the results for `CC(C)=CCc1cc(CC2OC(=O)C(O)=C2c2ccc(O)cc2)ccc1O` (centres unmarked) [Compound 8, 3-hydroxy-5-[[4-hydroxy-3-(3-methyl-2-buten-1-yl)phenyl]methyl]-4-(4-hydroxyphenyl)-2(5H)-furanone] are 35.7 µM, 14.2 ± 0.5%, 45.1 ± 7.2 µM and 60.9 ± 0.6%.
Consider `COC(=O)C1(Cc2ccc(O)cc2)OC(=O)C(O)=C1c1ccc(O)cc1` (centres unmarked) [Compound 9, butyrolactone II], for which the “AChE IR, %” value in assay [1] came out at 9.6 ± 0.5%. Besides, in assay [2] (setting [5]), the IC50 is above 100 µM. Moreover, the “BChE IR, %” value in assay [2] was 19.9 ± 6.0%.
On to `CC1(C)CCc2cc(CC3OC(=O)C(O)=C3c3ccc(O)cc3)ccc2O1` (centres unmarked) [Compound 10, 5-[(3,4-dihydro-2,2-dimethyl-2H-1-benzopyran-6-yl)methyl]-3-hydroxy-4-(4-hydroxyphenyl)-2(5H)-furanone], for which, in assay [1], the “AChE IR, %” value was 23.2 ± 1.1%. In addition, in assay [2] (setting [5]), the concentration for half-maximal inhibition (IC50) is above 100 µM. Also, in assay [2], the “BChE IR, %” value was determined as 33.3 ± 7.5%.
On the same counts, the results for `COC(=O)C1(Cc2ccc3c(c2)CCC(C)(C)O3)OC(=O)C(O)=C1c1ccc(O)cc1` (centres unmarked) [Compound 11, aspernolide A] are −0.1 ± 0.7%, above 100 µM and 25.4 ± 3.7%.
Regarding `COC(=O)C1(Cc2ccc(O)c(CCC(C)(C)O)c2)OC(=O)C(O)=C1c1ccc(O)cc1` (centres unmarked) [Compound 12, aspernolide B], the “AChE IR, %” value in assay [1] is 2.2 ± 1.5%. Moreover, the IC50 in assay [2] (setting [5]) was above 100 µM. Besides, the “BChE IR, %” value in assay [2] amounted to 13.4 ± 1.3%.
For `COC(=O)C1(Cc2ccc(O)c(CCC(C)(C)OC)c2)OC(=O)C(O)=C1c1ccc(O)cc1` (centres unmarked) [Compound 13, aspernolide C], the “AChE IR, %” value in assay [1] was determined as 3.9 ± 0.9%. Further, the IC50 in assay [2] (setting [5]) is above 100 µM. In addition, the “BChE IR, %” value in assay [2] was 22.6 ± 5.3%.
In the case of `COC(=O)C1(Cc2ccc(O)c(CC3OC3(C)C)c2)OC(=O)C(O)=C1c1ccc(O)cc1` (centres unmarked) [Compound 14, butyrolactone III], in assay [1], the “AChE IR, %” value is −4.2 ± 0.3%. In assay [2], the half-maximal inhibitory concentration (IC50) was above 100 µM and the “BChE IR, %” value is given as -12.3 ± 4.6%.
For the compound `COC(=O)C1(Cc2ccc3c(c2)CC(C(C)(C)O)O3)OC(=O)C(O)=C1c1ccc(O)cc1` (centres unmarked) [Compound 15, butytolactone IV], the “AChE IR, %” value in assay [1] amounted to 13.3 ± 5.5%. Moreover, the IC50 in assay [2] (setting [5]) was above 100 µM. Further, the “BChE IR, %” value in assay [2] came out at 33.5 ± 2.3%.
For `COc1ccc2c3c1O[C@H]1C[C@@H](O)C=C[C@@]31CCN(C)C2` [Galantamine, reference compound], the entries for the “BChE IR, %” value in assay [2] and in assay [2] (listed as galantamine) were 72.4 ± 1.2% and 72.4%, respectively.
